Measurements: ChEMBL document CHEMBL1145231, “2-Alkoxydihydrocinnamates as PPAR agonists. Activity modulation by the incorporation of phenoxy substituents” (Bioorg Med Chem Lett, 2005)

Key:
[1] = biological target: T1, Peroxisome proliferator-activated receptor alpha (Homo sapiens, UniProt Q07869)
T1 sequence (Q07869 whole entry): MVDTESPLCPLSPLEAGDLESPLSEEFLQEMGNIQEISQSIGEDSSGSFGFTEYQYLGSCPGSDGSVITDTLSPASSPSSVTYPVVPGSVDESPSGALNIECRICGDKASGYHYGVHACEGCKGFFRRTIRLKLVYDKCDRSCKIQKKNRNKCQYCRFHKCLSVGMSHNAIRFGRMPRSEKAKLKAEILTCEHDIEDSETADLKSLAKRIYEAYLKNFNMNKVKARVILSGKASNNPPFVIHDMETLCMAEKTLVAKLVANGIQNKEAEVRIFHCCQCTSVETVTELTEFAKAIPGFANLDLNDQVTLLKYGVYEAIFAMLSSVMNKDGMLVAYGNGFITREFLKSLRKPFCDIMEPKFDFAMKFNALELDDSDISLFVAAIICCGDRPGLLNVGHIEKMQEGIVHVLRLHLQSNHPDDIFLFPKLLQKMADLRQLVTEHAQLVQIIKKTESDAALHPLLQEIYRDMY

[2] = biological target: T1, Peroxisome proliferator-activated receptor alpha; remark: listed apart in the source
[3] = biological target: T2, Peroxisome proliferator-activated receptor delta (Homo sapiens, UniProt Q03181)
T2 sequence (Q03181 whole entry): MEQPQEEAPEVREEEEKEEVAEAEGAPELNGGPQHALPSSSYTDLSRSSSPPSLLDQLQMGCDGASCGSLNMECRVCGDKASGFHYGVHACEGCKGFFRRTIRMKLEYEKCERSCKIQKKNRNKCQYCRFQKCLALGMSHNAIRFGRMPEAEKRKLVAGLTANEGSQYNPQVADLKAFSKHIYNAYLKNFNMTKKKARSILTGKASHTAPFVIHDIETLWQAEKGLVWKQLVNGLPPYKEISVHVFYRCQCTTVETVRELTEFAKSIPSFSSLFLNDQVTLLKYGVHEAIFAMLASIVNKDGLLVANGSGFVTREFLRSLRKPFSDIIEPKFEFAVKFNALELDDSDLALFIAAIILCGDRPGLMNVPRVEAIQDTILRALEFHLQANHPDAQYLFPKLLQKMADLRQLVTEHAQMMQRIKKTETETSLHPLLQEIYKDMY

Rattus norvegicus = species: Rattus norvegicus; assay: animal or person; assay type: functional

`CC(C)(Oc1ccc(C(=O)c2ccc(Cl)cc2)cc1)C(=O)O` [FENOFIBRIC ACID] was tested, and the EC50 [1] was > 10000 nM and the IC50 [2] was > 10000 nM.

Work on `CO[C@@H](Cc1ccc(C#CCCOc2ccc(Oc3ccccc3)cc2)cc1)C(=O)O` yielded an EC50 [1] of 1880 nM, an IC50 [3] of 3940 nM and an IC50 [2] of 1150 nM. It also gave an ED50 (Rattus norvegicus) of 0.08 mg/kg.

`CO[C@@H](Cc1ccc(C#CCCCOc2ccc(Oc3ccccc3)cc2)cc1)C(=O)O` showed an EC50 [1] of 2620 nM, an IC50 [3] of 4120 nM and an IC50 [2] of 770 nM. For the same compound, the ED50 (Rattus norvegicus) was 0.07 mg/kg.

With `CO[C@@H](Cc1ccc(OCCCOc2ccc(C(=O)c3ccccc3)cc2)c(Cl)c1)C(=O)O` the EC50 [1] was 2710 nM, the IC50 [3] was 1510 nM and the IC50 [2] was 309 nM. The ED50 (Rattus norvegicus) was 0.29 mg/kg.

With `CO[C@@H](Cc1ccc(OCCCOc2ccc(-c3ccccc3)cc2)cc1)C(=O)O` the EC50 [1] was 1100 nM, the IC50 [3] was 1390 nM and the IC50 [2] was 568 nM. For the same compound, the ED50 (Rattus norvegicus) was 1.5 mg/kg.

`CCO[C@@H](Cc1ccc(OCCCOc2ccc(Oc3ccccc3)cc2)cc1)C(=O)O` was tested, and the EC50 [1] was 2750 nM, the IC50 [3] was 1570 nM and the IC50 [2] was 1690 nM. The ED50 (Rattus norvegicus) was 0.015 mg/kg.

`CO[C@@H](Cc1ccc(OCCCOc2ccc(Oc3ccccc3)cc2)cc1)C(=O)O` [NAVEGLITAZAR] gave an EC50 [1] of 2820 nM, an IC50 [3] of 1920 nM and an IC50 [2] of 2710 nM. The ED50 (Rattus norvegicus) was 0.1 mg/kg.

Work on `COc1cc(C[C@H](OC)C(=O)O)ccc1OCCCOc1ccc(Oc2ccccc2)cc1` yielded an EC50 [1] of 2150 nM, an IC50 [3] of 7500 nM and an IC50 [2] of 1350 nM. The ED50 (Rattus norvegicus) was 0.12 mg/kg.

In the case of `CO[C@@H](Cc1ccc(OCCCOc2ccc(C(=O)c3ccccc3)cc2)cc1)C(=O)O`, the EC50 [1] is reported as 2870 nM, the IC50 [3] is reported as 2320 nM and the IC50 [2] is reported as 470 nM. The ED50 (Rattus norvegicus) was 0.18 mg/kg.
